According to ChEMBL document CHEMBL5576102, “Characterization of Sesquiterpene Dimers from the Flowers of Inula japonica and the Structural Revisions of Related Compounds” (J Nat Prod, 2024):

Assays:
RAW264.7 [1] = assay: Cytotoxicity against mouse RAW264.7 cells upto 50 uM measured after 48 hrs by MTT assay; assay type: toxicity, cell-based; details: raw264.7, 48 h
RAW264.7 [2] = assay: Anti-inflammatory activity in LPS-stimulated mouse RAW264.7 cells assessed as inhibition of NO production measured after 48 hrs by Griess assay; assay type: functional, cell-based; details: RAW264.7, 48 h
RAW264.7 [3] = assay: Cytotoxicity against mouse RAW264.7 cells at 6.25 to 3.125 uM measured after 48 hrs by MTT assay; assay type: toxicity, cell-based; details: raw264.7, 48 h, dose 6.25-3.125 µM
RAW264.7 [4] = assay: Cytotoxicity against mouse RAW264.7 cells upto 25 uM measured after 48 hrs by MTT assay; assay type: toxicity, cell-based; details: raw264.7, 48 h

Question: CC(=O)O[C@H]1[C@@H]2C(C)=C3C[C@H]4[C@H](C[C@H](C)[C@@]31C[C@]2(C(=O)O)c1ccc(C)c([C@@H](C)CCCO)c1)OC(=O)[C@H]4C was tested. Which Activity (RAW264.7 [1]) did it give?
Answer: The Activity was “Non-Toxic”.

Question: What about the IC50 (RAW264.7 [2]) of the same compound?
Answer: The IC50 was over 50 µM.

Question: For C[C@]12CCC(=O)C=C1CC[C@@H]1[C@@H]2[C@@H](O)C[C@@]2(C)[C@H]1CC[C@]2(O)C(=O)COC(=O)CCC(=O)O [HYDROCORTISONE SODIUM SUCCINATE], which IC50 (RAW264.7 [2]) is on record?
Answer: Its IC50 is 44 µM.

Question: Which results are given for C=C1C[C@H]2OC(=O)[C@@]3(C[C@]45C(=C(C)[C@H]3[C@@H]4OC(C)=O)C[C@@H]3C(=C)C(=O)O[C@H]3C[C@@H]5C)[C@H]2C=C1[C@@H](C)CCCOC(C)=O?
Answer: IC50 (RAW264.7 [2]): > 50 µM; Activity (RAW264.7 [3]): Non-Toxic

Question: How did the IC50 (RAW264.7 [2]) turn out when C=C1C(=O)O[C@H]2C[C@H](C)[C@@]34C[C@@]5(C(=O)O[C@@H]6C[C@](C)(O)C([C@@H](C)CCCOC(C)=O)=C[C@@H]65)[C@@H](C(C)=C3C[C@H]12)[C@@H]4OC(C)=O was run?
Answer: The IC50 was 4.07 µM.

Question: And the Activity (RAW264.7 [4])?
Answer: The Activity was “Non-Toxic”.

Question: With C=C1C(=O)O[C@H]2C[C@H](C)[C@@]34C[C@](C(=O)O)(c5ccc(C)c([C@@H](C)CCCO)c5)[C@@H](C(C)=C3C[C@H]12)[C@@H]4OC(C)=O as the compound, how does the Activity (RAW264.7 [1]) read?
Answer: Its Activity is “Non-Toxic”.

Question: And the IC50 (RAW264.7 [2])?
Answer: Its IC50 is 7.82 µM.

Question: CC(=O)OCCC[C@H](C)C1=C(C)C[C@H]2OC(=O)[C@@]3(C[C@]45C(=C(C)[C@H]3[C@@H]4OC(C)=O)C[C@H]3[C@H](C[C@@H]5C)OC(=O)[C@H]3C)[C@H]2[C@@H]1O was tested. Which IC50 (RAW264.7 [2]) did it give?
Answer: Its IC50 is 5.73 µM.

Question: And the Activity (RAW264.7 [4])?
Answer: Its Activity is “Non-Toxic”.

Question: How did the Activity (RAW264.7 [1]) turn out when C=C1C(=O)O[C@H]2C[C@H](C)[C@@]34C[C@@]5(C(=O)O[C@@H]6C[C@@](C)(O)C([C@@H](C)CCCO)=C[C@@H]65)[C@@H](C(C)=C3C[C@H]12)[C@@H]4OC(C)=O was run?
Answer: The Activity was “Non-Toxic”.

Question: And the IC50 (RAW264.7 [2])?
Answer: Its IC50 is 10 µM.

Question: Which results are given for CC(=O)OCCC[C@H](C)c1cc([C@@]2(C(=O)O)CC[C@H](C(=O)O)c3cc([C@@H](C)CCCO)c(C)cc32)ccc1C?
Answer: Activity (RAW264.7 [1]): Non-Toxic; IC50 (RAW264.7 [2]): > 50 µM

Question: With Cc1ccc([C@@]2(C(=O)O)CC[C@H](C(=O)O)c3cc([C@@H](C)CCCO)c(C)cc32)cc1[C@@H](C)CCCO as the compound, how does the Activity (RAW264.7 [1]) read?
Answer: Its Activity is “Non-Toxic”.

Question: And the IC50 (RAW264.7 [2])?
Answer: Its IC50 is over 50 µM.

Question: CC(=O)O[C@H]1[C@@H]2C(C)=C3C[C@H]4[C@H](C[C@H](C)[C@@]31C[C@@]21C(=O)O[C@@H]2C[C@@](C)(O)C([C@@H](C)CCCO)=C[C@@H]21)OC(=O)[C@H]4C was tested. Which Activity (RAW264.7 [1]) did it give?
Answer: The Activity was “Non-Toxic”.

Question: What about the IC50 (RAW264.7 [2]) of the same compound?
Answer: Its IC50 is over 50 µM.

Question: What does the source list for CC(=O)OCCC[C@H](C)c1cc([C@@]2(C(=O)O)CC[C@H](C(=O)O)c3cc([C@@H](C)CCCOC(C)=O)c(C)cc32)ccc1C?
Answer: Activity (RAW264.7 [1]): Non-Toxic; IC50 (RAW264.7 [2]): > 50 µM
